A short description of series [1]: Storage stability of the crystals at 60° C. (remaining activity by HPLC). It is filed as physicochemical. Here is the method: About 500 mg of Compound (1) in a crystalline form obtained in each of Example 1 and Comparative example 1 was weighed out in a glass bottle, and the bottle was tightly sealed. Then, the bottle was left in a constant-temperature room at 60° C. for 8 days.

Series [2] in a line: Bulk density of crystals passing a 500 μm sieve (tapped). The class given is physicochemical. Particulars: crystals with particle size 500 μm or less; weight of crystals/volume of crystals after tapping. On the procedure:
Arbitrarily, 3.0 g of Compound (1) in a crystalline form obtained in each of Example 1, Comparative example 1, Example 2 and Comparative example 2 was taken out, and was passed through a test sieve with a diameter of 8 cm and a mesh size of 500 μm in accordance with the Japanese Industrial Standard (JIS Z 8801), and the bulk density of the crystals passing through the sieve was measured. […] The bulk density was calculated by using “weight of crystals”/“volume of crystals” as a calculation method.

The nature of series [3]: Particle size distribution of crystals by sieving (JIS Z 8801 / JIS Z 8901). The class given is physicochemical. The note with it: for ratio of weight of crystals, particle size <177 μm: mesh size <177 μm; for ratio of weight of crystals, particle size <350, ≧177 μm: mesh size <350, ≧177 μm; for ratio of weight of crystals, particle size ≧350 μm: mesh size ≧350 μm. An excerpt:
Arbitrarily, 3.0 g of Compound (1) in a crystalline form obtained in each of Example 2, Comparative example 2, Example 3 and Comparative example 3 was taken out. Test sieves with a mesh size in accordance with the Japanese Industrial Standard (JIS Z 8801), having a mesh size of 500 μm, 420 μm, 350 μm, 250 μm, 177 μm, 149 μm, 125 μm, 74 μm or 44 μm and an inner diameter of 8 cm, were used, and were shaken by hand in accordance with the measurement procedure of the standard sieving method specified in JIS Z 8901. The results obtained by comparing the particle size distributions between the “crystal of Example 2” and the “crystal of Comparative example 2”, and between the “crystal of Example 3” and the “crystal of Comparative example 3” are shown in Table 3.

The conditions of series [4]: stored at 40° C. for 20 days, crystalline form; cited from earlier work.
[5] abbreviates: Day 1 (set as 100%), crystal in sealed glass bottle at 60° C.
The mark [6] stands for this setting: Day 4, crystal in sealed glass bottle at 60° C.
The mark [7] stands for this setting: Day 6, crystal in sealed glass bottle at 60° C.
[8] abbreviates: Day 8, crystal in sealed glass bottle at 60° C.

In the case of `C[C@@H](O)[C@H]1C(=O)N2C(C(=O)OCc3ccc([N+](=O)[O-])cc3)=C(OP(=O)(Oc3ccccc3)Oc3ccccc3)[C@H](C)[C@H]12` [Comparative Example 1, p-nitrobenzyl (4R,5R,6S)-1-aza-3-diphenyloxyphosphoryloxy-6-[(1R)-1-hydroxyethyl]-4-methyl-7-oxobicyclo[3.2.0]hept-2-en-2-carboxylate, reference compound], the remaining activity (in general, the share of the control activity or signal that is left under treatment) in series [1] (setting [5]) is 100%; in series [1] (setting [6]) it was 96%; in series [1] (setting [7]), 87%; in series [1] (setting [8]), 80%. The “Bulk Density” value in series [2] came to 0.37.

As for `C[C@@H](O)[C@H]1C(=O)N2C(C(=O)OCc3ccc([N+](=O)[O-])cc3)=C(OP(=O)(Oc3ccccc3)Oc3ccccc3)[C@H](C)[C@H]12` [Comparative example 2, p-nitrobenzyl (4R,5R,6S)-1-aza-3-diphenyloxyphosphoryloxy-6-[(1R)-1-hydroxyethyl]-4-methyl-7-oxobicyclo[3.2.0]hept-2-en-2-carboxylate, reference compound], in series [3], the “ratio of weight of crystals, particle size <177 μm” value (shortened to “ratio … particle size <177 μm”) was found to be 34%; the “ratio of weight of crystals, particle size <350, ≧177 μm” value (shortened to “ratio of weight of crystals … ≧177 μm”) stood at 47%; the “ratio of weight of crystals, particle size ≧350 μm” value (“ratio … particle size ≧350 μm” for short) is 19%. For the same molecule, the “Bulk Density” value in series [2] was determined as 0.36.

As to `C[C@@H](O)[C@H]1C(=O)N2C(C(=O)OCc3ccc([N+](=O)[O-])cc3)=C(OP(=O)(Oc3ccccc3)Oc3ccccc3)[C@H](C)[C@H]12` [Comparative example 3, p-nitrobenzyl (4R,5R,6S)-1-aza-3-diphenyloxyphosphoryloxy-6-[(1R)-1-hydroxyethyl]-4-methyl-7-oxobicyclo[3.2.0]hept-2-en-2-carboxylate, reference compound], in series [3], the “ratio … particle size <177 μm” value is on record as 25%; the “ratio of weight of crystals … ≧177 μm” value is 45%; the “ratio … particle size ≧350 μm” value was 30%.

For the molecule `C[C@@H](O)[C@H]1C(=O)N2C(C(=O)OCc3ccc([N+](=O)[O-])cc3)=C(OP(=O)(Oc3ccccc3)Oc3ccccc3)[C@H](C)[C@H]12` [Compound (1), p-nitrobenzyl (4R,5R,6S)-1-aza-3-diphenyloxyphosphoryloxy-6-[(1R)-1-hydroxyethyl]-4-methyl-7-oxobicyclo[3.2.0]hept-2-en-2-carboxylate], the decomposition in series [1] (storage at 60° C., 8 days, crystal obtained by the same method as Patent document 4) is on record as 20%. For the same molecule, the decomposition on storage result in series [4] is recorded as “not decomposed”.

For `C[C@@H](O)[C@H]1C(=O)N2C(C(=O)OCc3ccc([N+](=O)[O-])cc3)=C(OP(=O)(Oc3ccccc3)Oc3ccccc3)[C@H](C)[C@H]12` [Example 1, p-nitrobenzyl (4R,5R,6S)-1-aza-3-diphenyloxyphosphoryloxy-6-[(1R)-1-hydroxyethyl]-4-methyl-7-oxobicyclo[3.2.0]hept-2-en-2-carboxylate], the remaining activity in series [1] (setting [5]) is 100%; in series [1] (setting [6]), 97%; in series [1] (setting [7]), 92%; in series [1] (setting [8]), 88%. The “Bulk Density” value in series [2] worked out at 0.43.

For `C[C@@H](O)[C@H]1C(=O)N2C(C(=O)OCc3ccc([N+](=O)[O-])cc3)=C(OP(=O)(Oc3ccccc3)Oc3ccccc3)[C@H](C)[C@H]12` [Example 2, p-nitrobenzyl (4R,5R,6S)-1-aza-3-diphenyloxyphosphoryloxy-6-[(1R)-1-hydroxyethyl]-4-methyl-7-oxobicyclo[3.2.0]hept-2-en-2-carboxylate], in series [3], the “ratio … particle size <177 μm” value was determined as 10%; the “ratio of weight of crystals … ≧177 μm” value amounted to 41%; the “ratio … particle size ≧350 μm” value came out at 49%. Further, the “Bulk Density” value in series [2] is 0.40.

For the molecule `C[C@@H](O)[C@H]1C(=O)N2C(C(=O)OCc3ccc([N+](=O)[O-])cc3)=C(OP(=O)(Oc3ccccc3)Oc3ccccc3)[C@H](C)[C@H]12` [Example 3, p-nitrobenzyl (4R,5R,6S)-1-aza-3-diphenyloxyphosphoryloxy-6-[(1R)-1-hydroxyethyl]-4-methyl-7-oxobicyclo[3.2.0]hept-2-en-2-carboxylate], in series [3], the “ratio … particle size <177 μm” value was determined as 18%; the “ratio of weight of crystals … ≧177 μm” value turned out to be 36%; the “ratio … particle size ≧350 μm” value was found to be 46%.
